In brackets after ≈: the same amount, converted by molar mass. Structures can show the parent of a compound that is named as a salt. Marks after values point to notes of the source that are not given here. Each block holds one molecule with its values, some of them ahead of it.
Legend:
HIV-1 strain GH3 = test: Anti-HIV cytopathicity, acute infection of M8166 cells; format: cell-based; conditions: high multiplicity of infection of 0.11424
HIV-2 strain GH1 = test: Anti-HIV-2 cytopathicity in Molt 4 clone 8 cells; format: cell-based
Edwardsiella species = test: Bacteria growth, tetrazolium-based colorimetry
Staphylococcus aureus = test: Bacteria growth, tetrazolium-based colorimetry
Klebsiella pneumoniae = test: Bacteria growth, tetrazolium-based colorimetry
Salmonella typhimurium = test: Bacteria growth, tetrazolium-based colorimetry
PBMCs [1] = test system: PBMCs
PBMCs [2] = test: Ex vivo effects on culture induced death of PBMCs of AIDS patients; format: cell-based, human; conditions: four AIDS patients; noncytotoxic concentrations
[3] = MOI 0.018, treatment after 40 mins of virus adsorption
[4] = Edwardsiella, inoculum 10^1 CID50
[5] = Edwardsiella, inoculum 10^2 CID50
[6] = Edwardsiella, inoculum 10^3 CID50
[7] = Salmonella enterica, TYPHIMURIUM

Structure (SMILES): Nc1ccn([C@H]2CC[C@@H](CO)O2)c(=O)n1 [ddCyd, 2′,3′-dideoxycytidine]
toxicity towards PBMCs from the healthy person (PBMCs [1]): no toxicity | accelerated culture induced death of PBMCs from AIDS patients (PBMCs [2]): effective in these patients except one AIDS patient

Structure (SMILES): OC[C@@H]1CC[C@H](n2cnc3c(O)ncnc32)O1 [ddino, 2′,3′-dideoxyinosine]
accelerated culture induced death of PBMCs from AIDS patients (PBMCs [2]): effective in these patients except one AIDS patient

More lines, main results first:

EC50 (HIV-2 strain GH1; MOI 0.018, treatment 2 hrs after virus adsorption): 0.000001 mg/mL (≈ 0.00374 µM) | EC50 (HIV-2 strain GH1; [3]): <0.0000003* mg/ml | EC90 (HIV-2 strain GH1; [3]): 0.3 µg/mL (≈ 1.12 µM)
Structure (SMILES): Cc1cn([C@H]2C[C@H](N=[N+]=[N-])[C@@H](CO)O2)c(=O)[nH]c1=O [AZT, 3′-azido-2′,3′-dideoxythymidine]
cell protection (HIV-1 strain GH3): < 90%

EC50 (Edwardsiella species; inoculum 10^1 CID50): 196 to 392 µg/mL | EC90 (Edwardsiella species; inoculum 10^1 CID50): 392 µg/mL | EC50 (Edwardsiella species; inoculum 10^2 CID50): 196 to 392 µg/mL | EC90 (Edwardsiella species; inoculum 10^2 CID50): 392 to 784 µg/mL | EC50 (Edwardsiella species; inoculum 10^3 CID50): >0.784* mg/ml | EC90 (Edwardsiella species; inoculum 10^3 CID50): >784 µg/mL | EC50 (Staphylococcus aureus; inoculum 10^1 CID50): <0.5 µg/mL | EC90 (Staphylococcus aureus; inoculum 10^1 CID50): <0.5 µg/mL | EC50 (Staphylococcus aureus; inoculum 10^2 CID50): <0.5 µg/mL | EC90 (Staphylococcus aureus; inoculum 10^2 CID50): <0.5 µg/mL | EC50 (Staphylococcus aureus; inoculum 10^3 CID50): 2 µg/mL | EC90 (Staphylococcus aureus; inoculum 10^3 CID50): 2 to 4 µg/mL | EC50 (Klebsiella pneumoniae; inoculum 10^2 CID50): 75 µg/mL | EC90 (Klebsiella pneumoniae; inoculum 10^2 CID50): 130 µg/mL | EC50 (Salmonella typhimurium; inoculum 10^1 CID50): 157 to 314 µg/mL | EC90 (Salmonella typhimurium; inoculum 10^1 CID50): 0.157–0.314* mg/ml
Structure (SMILES): CC1(C)S[C@@H]2[C@H](NC(=O)Cc3ccccc3)C(=O)N2[C@H]1C(=O)[O-].[Na+] [Penicillin G, sodium penicillin G]

EC50 (Edwardsiella species; [4]): 63 µg/mL | EC90 (Edwardsiella species; [4]): 63 to 125 µg/mL | EC50 (Edwardsiella species; [5]): 63 µg/mL | EC90 (Edwardsiella species; [5]): 500 µg/mL | EC50 (Edwardsiella species; [6]): > 500 µg/mL | EC90 (Edwardsiella species; [6]): > 500 µg/mL | EC50 (Staphylococcus aureus; Staphylococcus aureus): < 0.4 µg/mL | EC90 (Staphylococcus aureus; Staphylococcus aureus): < 0.4 µg/mL | EC50 (Staphylococcus aureus; inoculum 10^2 CID50): <0.4 µg/mL | EC90 (Staphylococcus aureus; inoculum 10^2 CID50): <0.4 µg/mL | EC50 (Staphylococcus aureus; inoculum 10^3 CID50): <0.4 µg/mL | EC90 (Staphylococcus aureus; inoculum 10^3 CID50): <0.4 µg/mL | EC50 (Klebsiella pneumoniae; Klebsiella pneumoniae): < 1 µg/mL | EC90 (Klebsiella pneumoniae; Klebsiella pneumoniae): < 1 µg/mL | EC50 (Salmonella typhimurium; [7]): 16 to 32 µg/mL | EC90 (Salmonella typhimurium; [7]): 16 to 32 µg/mL | EC50 (Salmonella typhimurium; inoculum 10^2 CID50): 16 to 32 µg/mL | EC90 (Salmonella typhimurium; inoculum 10^2 CID50): 16 to 32 µg/mL | EC50 (Salmonella typhimurium; inoculum 10^3 CID50): 16 to 32 µg/mL | EC90 (Salmonella typhimurium; inoculum 10^3 CID50): 16 to 32 µg/mL
Structure (SMILES): [H]/N=C(/N)N[C@H]1[C@H](O)[C@@H](O)[C@H](O[C@@H]2O[C@@H](C)[C@](O)(C=O)[C@H]2O[C@@H]2O[C@@H](CO)[C@H](O)[C@@H](O)[C@@H]2NC)[C@@H](N/C(N)=N\[H])[C@@H]1O [Streptomycin sulfate, streptomycin sulfate]

From patent US7220437B2, “Antiviral and antibacterial activities of extracts from eight plants” (priority 1996, dated 2007)
